From ChEMBL document CHEMBL1156214, “Identification of GNE-477, a potent and efficacious dual PI3K/mTOR inhibitor” (Bioorg Med Chem Lett, 2010)
Values after ≈ are worked out from the molar mass of the structure shown. Values belong to the compound of their own block, whether it stands above or below them. Active and inactive are the calls of the source. The rule behind the calls is not given here.

How the values were obtained:
[1] = molecular target: Serine/threonine-protein kinase mTOR (Homo sapiens, UniProt P42345); experiment: Inhibition of human recombinant mTOR assessed as reduction in GFP-4EBP1 phosphorylation after 30 mins by FRET assay
[2] = Clearance in rat at 1 mg/kg, iv or 5 mg/kg, po; format: ADME, organism-based; settings: in vivo
[3] = Antiproliferative activity against human MCF7.1 cells after 3 days by celltiter-glo luminescence assay; format: functional, cell-based; settings: MCF7.1, 72 h
[4] = Hepatic clearance in rat liver microsomes; format: ADME, Microsome
[5] = Plasma protein binding in rat at 1 mg/kg, iv or 5 mg/kg, po; format: ADME, organism-based; settings: read-out: PPB (converted)
Rattus norvegicus = experiment: Unbound clearance in rat at 1 mg/kg, iv or 5 mg/kg, po; format: ADME, organism-based; settings: in vivo
[6] = molecular target: Phosphatidylinositol 4,5-bisphosphate 3-kinase catalytic subunit alpha isoform (Homo sapiens, UniProt P42336)
Sequence of Phosphatidylinositol 4,5-bisphosphate 3-kinase catalytic subunit alpha isoform (P42336 whole entry, canonical isoform): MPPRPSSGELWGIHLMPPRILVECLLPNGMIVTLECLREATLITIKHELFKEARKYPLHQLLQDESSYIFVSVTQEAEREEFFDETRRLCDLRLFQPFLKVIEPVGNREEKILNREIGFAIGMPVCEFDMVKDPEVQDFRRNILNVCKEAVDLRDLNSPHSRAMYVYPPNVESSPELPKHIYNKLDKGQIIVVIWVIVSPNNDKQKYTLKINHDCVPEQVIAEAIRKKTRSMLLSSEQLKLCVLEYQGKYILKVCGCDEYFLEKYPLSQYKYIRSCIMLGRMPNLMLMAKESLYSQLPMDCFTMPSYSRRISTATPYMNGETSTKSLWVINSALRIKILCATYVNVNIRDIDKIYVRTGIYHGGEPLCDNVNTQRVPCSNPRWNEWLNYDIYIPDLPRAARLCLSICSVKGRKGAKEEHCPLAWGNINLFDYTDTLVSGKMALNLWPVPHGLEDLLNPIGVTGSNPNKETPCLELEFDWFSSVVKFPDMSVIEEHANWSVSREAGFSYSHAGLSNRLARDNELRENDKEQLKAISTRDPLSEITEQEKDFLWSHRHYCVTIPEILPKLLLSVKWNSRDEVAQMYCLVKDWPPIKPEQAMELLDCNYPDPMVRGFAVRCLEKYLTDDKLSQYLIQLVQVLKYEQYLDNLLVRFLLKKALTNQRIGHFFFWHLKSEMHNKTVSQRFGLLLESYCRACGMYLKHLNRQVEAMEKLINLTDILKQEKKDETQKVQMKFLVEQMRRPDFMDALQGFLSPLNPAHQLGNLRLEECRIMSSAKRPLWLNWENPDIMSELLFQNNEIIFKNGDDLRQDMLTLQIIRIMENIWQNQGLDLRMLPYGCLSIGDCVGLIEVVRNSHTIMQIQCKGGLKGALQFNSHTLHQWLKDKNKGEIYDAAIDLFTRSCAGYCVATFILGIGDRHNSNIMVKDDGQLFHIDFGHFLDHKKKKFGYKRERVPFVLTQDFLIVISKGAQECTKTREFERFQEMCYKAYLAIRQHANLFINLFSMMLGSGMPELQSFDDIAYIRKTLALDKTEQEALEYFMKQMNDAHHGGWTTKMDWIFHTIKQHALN
Description: Inhibition of PI3Kalpha assessed as reduction in 3,4,5-inositoltriphosphate accumulation after 30 mins by fluorescence polarization assay

[7] = Thermodynamic solubility at pH 6.5; format: physicochemical; settings: buffer
[8] = Clearance in nu/nu mouse at 1 mg/kg, iv or 5 mg/kg, po; format: ADME, organism-based; settings: in vivo
[9] = Oral bioavailability in nu/nu mouse at 5 mg/kg; format: ADME, organism-based; settings: in vivo
[10] = Oral bioavailability in Beagle dog at 2 mg/kg; format: ADME, organism-based, Canis lupus familiaris; settings: in vivo
[11] = Oral bioavailability in rat at 5 mg/kg; format: ADME, organism-based; settings: in vivo
[12] = Clearance in Beagle dog at 1 mg/kg, iv or 2 mg/kg, po; format: ADME, organism-based, Canis lupus familiaris; settings: in vivo
PC-3 [13] = experiment: Antitumor activity against human PC3 cells xenografted in nu/nu mouse assessed as tumor growth inhibition at 1 mg/kg, po QD measured after 14 days relative to control; format: functional; design: scale not given: the % may be the effect or the level left
PC-3 [14] = experiment: Antitumor activity against human PC3 cells xenografted in nu/nu mouse assessed as tumor growth inhibition at 5 mg/kg, po QD measured after 14 days relative to control; format: functional; design: scale not given: the % may be the effect or the level left
PC-3 [15] = experiment: Antitumor activity against human PC3 cells xenografted in nu/nu mouse assessed as tumor growth inhibition at 10 mg/kg, po QD measured after 14 days relative to control; format: functional; design: scale not given: the % may be the effect or the level left
PC-3 [16] = experiment: Antitumor activity against human PC3 cells xenografted in nu/nu mouse assessed as tumor growth inhibition at 20 mg/kg, po QD measured after 14 days relative to control; format: functional; design: scale not given: the % may be the effect or the level left
PC-3 [17] = experiment: Antitumor activity against human PC3 cells xenografted in nu/nu mouse assessed as tumor incidence at 1 mg/kg, po QD measured after 14 days; format: functional, organism-based; design: dose 1 mg/kg
PC-3 [18] = experiment: Antitumor activity against human PC3 cells xenografted in nu/nu mouse assessed as tumor incidence at 10 mg/kg, po QD measured after 14 days; format: functional, organism-based; design: dose 10 mg/kg
PC-3 [19] = experiment: Antiproliferative activity against human PC3 cells after 3 days by celltiter-glo luminescence assay; format: functional, cell-based; settings: PC-3, 72 h
Mus musculus = experiment: Toxicity in nu/nu mouse assessed as body weight loss at 1 to 20 mg/kg, po QD measured after 14 days; format: organism-based; design: dose 1-20 mg/kg, route oral; settings: in vivo, 336 h

- Ki [1]: 30 nM
- clearance [2]: 21 mL/min/kg
- CLhep predicted [4]: 20 mL/min/kg
- fraction unbound [5]: 0.49
- Unbound clearance (Rattus norvegicus): 43 mL/min/kg
- IC50 [6]: 3 nM
Compound: CC(=O)N(C)Cc1sc2c(N3CCOCC3)nc(-c3cnc(N)nc3)nc2c1C
- EC50 [3]: 164 nM

- Ki [1]: 4 nM
- clearance [2]: 15 mL/min/kg
- CLhep predicted [4]: 38 mL/min/kg
- IC50 [6]: 2 nM
Compound: Cc1c(-c2cccc(C(=O)N3CCN(C)CC3)c2)sc2c(N3CCOCC3)nc(-c3cnc(N)nc3)nc12
- EC50 [3]: 65 nM

- Ki [1]: 42 nM
- solubility thermodynamic [7]: 170 µg/mL (≈ 541 µM)
- IC50 [6]: 5 nM
Compound: Nc1ncc(-c2nc(N3CCOCC3)c3sccc3n2)cn1
- EC50 [3]: 430 nM

- Ki [1]: 4 nM
- clearance [2]: 13 mL/min/kg
- solubility thermodynamic [7]: 3 µg/mL (≈ 6.22 µM)
- CLhep predicted [4]: 12 mL/min/kg
- bioavailability [11]: 4%
- fraction unbound [5]: 0.03
- Unbound clearance (Rattus norvegicus): 433 mL/min/kg
- IC50 [6]: < 1 nM
Compound: Cc1c(-c2cccc(S(C)(=O)=O)c2)sc2c(N3CCOCC3)nc(-c3cnc(N)nc3)nc12
- EC50 [3]: 68 nM

- Ki [1]: 59 nM
- solubility thermodynamic [7]: 1100 µg/mL (≈ 2960 µM)
- IC50 [6]: 7 nM
Compound: CC(C)(N)c1cc2nc(-c3cnc(N)nc3)nc(N3CCOCC3)c2s1
- EC50 [3]: 290 nM

- Ki [1]: 21 nM
- clearance [2]: 13 mL/min/kg
- CLhep predicted [4]: 15 mL/min/kg
- clearance [8]: 15 mL/min/kg
- bioavailability [11]: 52%
- fraction unbound [5]: 0.25
- Unbound clearance (Rattus norvegicus): 52 mL/min/kg
- clearance [12]: 5 mL/min/kg
- bioavailability [9]: 98%
- bioavailability [10]: 90%
- EC50 (PC-3 [19]): 174 nM
Compound: Cc1c(CN2CCN(S(C)(=O)=O)CC2)sc2c(N3CCOCC3)nc(-c3cnc(N)nc3)nc12
- EC50 [3]: 143 nM
- Activity (PC-3 [13]): 33%
- Activity (PC-3 [14]): 43%
- Activity (PC-3 [15]): 60%
- Activity (PC-3 [16]): 86%
- Activity (PC-3 [17]): inactive
- Activity (PC-3 [18]): inactive
- Activity (Mus musculus): < 10%

- Ki [1]: 10 nM
- clearance [2]: 52 mL/min/kg
- CLhep predicted [4]: 20 mL/min/kg
- IC50 [6]: 1 nM
Compound: CN1CCN(C(=O)c2cccc(-c3cc4nc(-c5cnc(N)nc5)nc(N5CCOCC5)c4s3)c2)CC1
- EC50 [3]: 78 nM

Second part, the compound before the results:

Compound: CN(Cc1cc2nc(-c3cnc(N)nc3)nc(N3CCOCC3)c2s1)S(C)(=O)=O
- Ki [1]: 10 nM
- EC50 [3]: 170 nM
- solubility thermodynamic [7]: 15 µg/mL (≈ 34.4 µM)
- IC50 [6]: 1 nM

Compound: CS(=O)(=O)N1CCN(Cc2cc3nc(-c4cccc5[nH]ncc45)nc(N4CCOCC4)c3s2)CC1 [PICTILISIB]
- EC50 [3]: 720 nM

Compound: CS(=O)(=O)N1CCN(Cc2cc3nc(-c4cnc(N)nc4)nc(N4CCOCC4)c3s2)CC1
- Ki [1]: 29 nM
- EC50 [3]: 130 nM
- solubility thermodynamic [7]: 62 µg/mL (≈ 126 µM)
- CLhep predicted [4]: 16 mL/min/kg
- clearance [8]: 49 mL/min/kg
- fraction unbound [5]: 0.48
- Unbound clearance (Rattus norvegicus): 50 mL/min/kg
- bioavailability [9]: 81%
- bioavailability [10]: 35%

Compound: CS(=O)(=O)c1cccc(-c2cc3nc(-c4cnc(N)nc4)nc(N4CCOCC4)c3s2)c1
- Ki [1]: 5 nM
- clearance [2]: 56 mL/min/kg
- EC50 [3]: 40 nM
- solubility thermodynamic [7]: 1 µg/mL (≈ 2.13 µM)
- CLhep predicted [4]: 7 mL/min/kg
- bioavailability [11]: 3%
- fraction unbound [5]: 0.07
- Unbound clearance (Rattus norvegicus): 800 mL/min/kg
- IC50 [6]: < 1 nM

Compound: CC(=O)N(C)Cc1cc2nc(-c3cnc(N)nc3)nc(N3CCOCC3)c2s1
- Ki [1]: 50 nM
- clearance [2]: 50 mL/min/kg
- EC50 [3]: 190 nM
- solubility thermodynamic [7]: 770 µg/mL (≈ 1930 µM)
- CLhep predicted [4]: 2 mL/min/kg
- fraction unbound [5]: 0.53
- Unbound clearance (Rattus norvegicus): 94 mL/min/kg
- IC50 [6]: 5 nM
